In brackets after ≈: the same amount, converted by molar mass.

The source of these data is PubChem BioAssay AID1996.

The conditions of this data set: buffer; pH 7.4; 200.0 µM.
As a reminder, the solubility (kinetic) is the concentration staying in solution when a stock, usually in DMSO, is diluted into the medium. For `O=c1c2[nH]cnc2n(-c2ccc(F)cc2)c(=O)n1Cc1ccccc1`, the kinetic solubility is > 50.4 µg/mL.
For the compound `COP(=O)(NC(=O)C(Cl)(Cl)Cl)OC`, the solubility (kinetic) was > 40.6 µg/mL.
Turning to `CN(C)CCNC(=S)Nc1ccccc1C(C)(C)C`, the kinetic solubility was > 41.9 µg/mL.
Consider `CSC1=NCCN1C(=O)c1ccc(C)cc1`, for which the kinetic solubility is > 35.1 µg/mL.
For `CCOC(=O)CCCc1ccc(/C(C)=N/NC(N)=S)cc1`, the kinetic solubility is > 46.1 µg/mL.
`O=C(Cc1cccs1)NCc1ccc(Cl)cc1Cl` registered a solubility (kinetic) of 13.1 µg/mL (≈ 43.6 µM).
Take `CS(=O)(=NS(=O)(=O)c1ccc(Cl)cc1)c1ccccc1` (stereo not given): the kinetic solubility was > 49.5 µg/mL.
For `N#Cc1ccc(N2CCN(C(=O)c3cccs3)CC2)c(F)c1`, the kinetic solubility was 40.1 µg/mL (≈ 127 µM).
As for `O=C(O)/C=C/C(=O)NCCc1cccc(Cl)c1`, the solubility (kinetic) was > 38.1 µg/mL.
`Brc1ccccc1-c1cnco1`: the solubility (kinetic) amounted to 8.5 µg/mL (≈ 37.9 µM).
The compound `Cc1cc(=O)oc2cc(NC(=O)CC3(CC(=O)O)CCCC3)ccc12` showed a solubility (kinetic) of 50.2 µg/mL (≈ 146 µM).
As to `CC(C)CC1CCCCC1OC(=O)CN1CCCCC1` (stereo not given), the kinetic solubility amounted to 3.7 µg/mL (≈ 13.1 µM).
Regarding `O=C(CC1CCCCC1)NCc1ccccc1Cl`, the kinetic solubility is 2.9 µg/mL (≈ 10.9 µM).
The result for `OCCCc1nc2ccccc2n1Cc1ccccc1` reads > 40 µg/mL; that for `O=C(NCCc1ccc(Cl)cc1Cl)c1ccc2nc[nH]c2c1`, 33.2 µg/mL (≈ 99.3 µM); that for `Cc1ccc(S(=O)(=O)NC(=O)Nc2cc(C(C)(C)C)on2)cc1`, > 50.6 µg/mL.
`Cn1c(N)c(C(=O)Nc2cccc(Cl)c2)c(=O)n(C)c1=O` came in with a kinetic solubility of 2.5 µg/mL (≈ 8.1 µM).
In the case of `CCc1nc2oc3ccc(C)cc3c(=O)c2cc1C(=O)OC`, the kinetic solubility was < 0.6 µg/mL.
As to `O=C(c1ccccc1F)N1CCCc2ccccc21`, the kinetic solubility came to 33.4 µg/mL (≈ 131 µM).
`COc1ccccc1NC(=O)C1(c2ccccc2)CCCC1` came in with a solubility (kinetic) of 7.9 µg/mL (≈ 26.7 µM).
On to `CC(=O)N(c1nc(CCl)cs1)c1ccc(C)cc1C`, for which the kinetic solubility is > 44.2 µg/mL.
As to `CCN1CCN(C(=S)NC(=O)c2cccs2)CC1`, the kinetic solubility is > 42.5 µg/mL.
The result for `Cc1ccc(N2C(=O)C3C4C=CC(CC4)C3C2=O)cc1[N+](=O)[O-]` (stereo not given) reads 23.4 µg/mL (≈ 74.9 µM); that for `Cc1ccc(NC(=O)NC(=O)COc2c(F)c(F)cc(F)c2F)c(C)c1`, 20.5 µg/mL (≈ 55.4 µM); that for `Nc1cc(=O)[nH]c(SCCSc2ccc(F)cc2)n1`, 6.2 µg/mL (≈ 20.8 µM).
For `CCN(CC)C(=S)Nc1ccc(C(=O)OC)cc1`, the kinetic solubility is > 40 µg/mL.
For the compound `O=C(NCC1CCCO1)c1cc2c(s1)CCC2` (stereo not given), the solubility (kinetic) was > 37.7 µg/mL.
Take `CC(C)C(NS(=O)(=O)c1ccccc1)C(=O)N1CCCC1` (stereo not given): the solubility (kinetic) is > 46.6 µg/mL.
For the compound `O=C(NC(=S)NNC(=O)c1ccco1)c1ccc(F)cc1`, the solubility (kinetic) is > 46.1 µg/mL.
With `NC(=O)C1CCN(c2oc(-c3cccs3)nc2S(=O)(=O)c2ccc(Cl)cc2)CC1`, the kinetic solubility was found to be 51.9 µg/mL (≈ 115 µM).
Turning to `O=C(NCc1ccc(F)cc1)c1cnccn1`, the kinetic solubility was > 34.7 µg/mL.
With `CC(c1ccccc1)N1CC(C(=O)Nc2ccc(F)cc2)CC1=O` (stereo not given), the solubility (kinetic) is > 49 µg/mL.
As to `COc1ccccc1NC(=O)COC(=O)c1ccccn1`, the kinetic solubility was > 42.9 µg/mL.
In turn, `CN(C)c1ccc(NC(=O)c2cccc([N+](=O)[O-])c2)c2ccccc12` registered a kinetic solubility of 15.1 µg/mL (≈ 45 µM).
In the case of `COC(=O)c1cccc2c1NC(=O)C2=O`, the solubility (kinetic) was > 30.8 µg/mL.
As for `CCOc1ccc(N2CC(C(=O)N3CCc4ccccc43)CC2=O)cc1` (stereo not given), the figure is 4.5 µg/mL (≈ 12.8 µM).
Turning to `CCOC(=O)c1cnc2ccc(C)cc2c1N(C)Cc1ccccc1`, the kinetic solubility turned out to be 3.8 µg/mL (≈ 11.4 µM).
On to `CC(C)OCC(O)CN1CCC(Cc2ccccc2)CC1.Cl` (stereo not given), for which the kinetic solubility is > 49.2 µg/mL.
For `CCc1cccc2c(=O)c(C(=O)NCCCOC)c[nH]c12`, the solubility (kinetic) is > 43.3 µg/mL.
Compound `Cc1cccc(C)c1OCCCN1CCOCC1.Cl` came in with a solubility (kinetic) of 35.5 µg/mL.
`COc1nc2ccccc2nc1CCC(=O)O`: the solubility (kinetic) is > 34.8 µg/mL.
`Cc1ccc(C(CC(=O)NCCCN(C)C)c2ccc(OC(C)C)cc2)cc1` (stereo not given) displayed a solubility (kinetic) of 52.9 µg/mL (≈ 138 µM).
Take `O=C(COC(=O)/C=C/c1ccc(F)cc1)NCc1ccco1`: the kinetic solubility is 5.1 µg/mL (≈ 16.8 µM).
The compound `O=C1Cc2cc(S(=O)(=O)N3CCNCC3)ccc2N1` came in with a kinetic solubility of 39.1 µg/mL (≈ 139 µM).
With `COc1cc(C(=O)OC(C)C(=O)Nc2ccc3c(c2)OCCO3)cc(OC)c1OC` (stereo not given), the kinetic solubility was 7.2 µg/mL (≈ 17.2 µM).
Turning to `Cc1cccc(-n2c(C)c(C)c3c(N)ncnc32)c1`, the kinetic solubility came to 32.7 µg/mL (≈ 130 µM).
Take `O=C1CCc2ccccc2N1Cc1ccccc1`: the kinetic solubility turned out to be 32.5 µg/mL (≈ 137 µM).
As for `NCC(c1ccccc1)c1c[nH]c2ccccc12` (stereo not given), the figure is 22.1 µg/mL (≈ 93.5 µM); as for `O=C(COC(=O)C1CC1)Nc1ccc(S(=O)(=O)N2CCOCC2)cc1`, > 55.3 µg/mL.
For the compound `O=C(Cc1cccs1)N1CCN=C1SCc1ccccc1Cl`, the solubility (kinetic) turned out to be 6.6 µg/mL (≈ 18.8 µM).
The result for `Cc1cc(NC(=O)c2cccs2)ncc1NC(=O)C(C)C` reads > 45.5 µg/mL.
For `O=C(O)c1ccc(Nc2cccc(F)c2)c([N+](=O)[O-])c1`, the solubility (kinetic) was > 41.4 µg/mL.
In the case of `CC1CCCC(C)N1C(=O)COC(=O)COc1ccc(C#N)cc1` (stereo not given), the solubility (kinetic) is > 49.6 µg/mL.
As for `Nc1nccc(-c2cc(-c3ccc(Cl)cc3Cl)no2)n1`, the figure is 0.7 µg/mL (≈ 2.28 µM).
Take `COC(=O)Cn1c(Cc2ccccc2)nc2ccccc21`: the kinetic solubility is > 42 µg/mL.
For the compound `O=C1NC2=C(C(=O)CCC2)C(c2ccc([N+](=O)[O-])cc2)N1` (stereo not given), the solubility (kinetic) was > 43.1 µg/mL.
In turn, `Cl.O=C1CCC(c2ccccc2)(C2CCN(Cc3ccccc3)CC2)C(=O)N1` (stereo not given) yielded a solubility (kinetic) of 51.4 µg/mL.
Regarding `N#CCCN(C(=O)CN1CCN(S(=O)(=O)c2ccc(Cl)s2)CC1)c1ccc(F)cc1`, the kinetic solubility was > 70.6 µg/mL.
The result for `Nc1nc(NCC(=O)O)nc(NC2CCCCC2)c1[N+](=O)[O-]` reads > 46.5 µg/mL.
Take `O=C(Nc1ccc(Br)cc1)NC1CCCCCCC1`: the solubility (kinetic) is < 0.3 µg/mL.
`CCOC(=O)C(NC(C)=O)(NC(C)C)C(F)(F)F` (stereo not given) gave a kinetic solubility of 2.2 µg/mL (≈ 8.14 µM).
As to `COc1ccc(OCCn2ccnc2)cc1`, the kinetic solubility worked out at 26.4 µg/mL (≈ 121 µM).
Compound `COCCNC(=S)N1CCN(Cc2ccc3c(c2)OCO3)CC1` displayed a solubility (kinetic) of 47 µg/mL (≈ 139 µM).
`COC(=O)C1CCN(Cc2cc(=O)oc3cc(C)c(Cl)cc23)CC1` gave a solubility (kinetic) of 4.7 µg/mL (≈ 13.4 µM).
Regarding `N#CCCN(Cc1ccccc1)C(=O)c1cccs1`, the kinetic solubility was > 40.6 µg/mL.
With `CCOc1ccccc1NC(=O)c1cc(=O)c2ccccc2o1`, the kinetic solubility is < 0.7 µg/mL.
On to `Cc1oc(-c2cccc(C(F)(F)F)c2)nc1CN1CCC[C@H]1CO`, for which the solubility (kinetic) is > 51.1 µg/mL.
In turn, `CC(=O)c1ccc(OCCCC(=O)Nc2cccc(S(=O)(=O)N3CCCCCC3)c2)cc1` came in with a kinetic solubility of 10.4 µg/mL (≈ 22.7 µM).
On to `CC1CN(C)CCC1OC(=O)c1ccccc1.Cl` (stereo not given), for which the kinetic solubility is > 40.5 µg/mL.
As for `O=C(Nc1ccc(Br)cc1)Nc1cnccn1`, the figure is 3 µg/mL (≈ 10.2 µM); as for `NC(=O)c1oc2ccccc2c1NC(=O)c1ccc([N+](=O)[O-])o1`, 1.8 µg/mL (≈ 5.71 µM).
As to `O=C(NC1CCS(=O)(=O)C1)c1cccs1` (stereo not given), the kinetic solubility is > 36.8 µg/mL.
Compound `CCC(C)[C@H](NC(=O)Nc1ccc(C)cc1C)C(=O)O` (stereo not given in full) returned a kinetic solubility of 31.8 µg/mL (≈ 114 µM).
For the compound `O=C(O)c1cc(S(=O)(=O)NCCOc2ccccc2)ccc1Cl`, the kinetic solubility is > 53.4 µg/mL.
Take `O=C(CN1C(=O)NC2(CCc3ccccc32)C1=O)Nc1c(Cl)cccc1Cl` (stereo not given): the solubility (kinetic) is > 60.6 µg/mL.
`Cc1occc1C(=O)Nc1sccc1C(N)=O` came in with a kinetic solubility of 10.7 µg/mL (≈ 42.8 µM).
Turning to `COc1cccc(NC(=S)Nc2ccc(F)cc2)c1`, the solubility (kinetic) amounted to 28.7 µg/mL (≈ 104 µM).
Turning to `Cc1cc(C)c(S(=O)(=O)Nc2nccs2)c(C)c1`, the kinetic solubility came out at 36.1 µg/mL (≈ 128 µM).
`Cc1cnc(C(=O)NCCc2ccc(C(F)(F)F)cc2)cn1`: the solubility (kinetic) was 11.9 µg/mL (≈ 38.5 µM).
`O=C(Nc1ccc(F)cc1)C1C2CCC3C(CCC21)C3(Cl)Cl` (stereo not given): the kinetic solubility worked out at 0.8 µg/mL (≈ 2.34 µM).
On to `CCN(CC)CCCNc1nc(C)cc(COC)c1C#N`, for which the solubility (kinetic) is > 43.6 µg/mL.
Take `Cc1nc(/C(N)=N/OC(=O)c2ccccc2Cl)c(C(F)(F)F)o1`: the solubility (kinetic) is 35.8 µg/mL (≈ 103 µM).
For the compound `CC(C)n1c(SCC(=O)NC2CC2)nnc1C1CC1`, the kinetic solubility was > 42.1 µg/mL.
As for `O=C(O)c1cccc(S(=O)(=O)Nc2ccc([N+](=O)[O-])cc2O)c1`, the kinetic solubility is 45.3 µg/mL (≈ 134 µM).
In the case of `CCCNc1nc2c(c(=O)[nH]c(=O)n2C)n1CCOc1ccccc1`, the kinetic solubility was determined as 4 µg/mL (≈ 11.6 µM).
On to `Nc1cc(=O)[nH]c(SCC(=O)NCCC2=CCCCC2)n1`, for which the kinetic solubility was > 46.3 µg/mL.
`CCOc1ccc(CNCc2ccccc2Cl)cc1.Cl` registered a solubility (kinetic) of 31.6 µg/mL.
As for `CCOC(=O)C1=C(N)c2ccccc2CC1C1CCCC1` (stereo not given), the figure is 0.8 µg/mL (≈ 2.8 µM); as for `c1ccc(OCc2nc(-c3ccncc3)no2)cc1`, 36.5 µg/mL (≈ 144 µM); as for `Cc1ccccc1NC(=O)Cc1nnc(N)s1`, > 37.2 µg/mL.
For `O=C(Nc1ccc2ccccc2c1)C(=O)C1C(=O)Nc2ccccc21` (stereo not given), the kinetic solubility is 3.7 µg/mL (≈ 11.2 µM).
As to `OCCNCC(O)CN1c2ccccc2Sc2ccccc21` (stereo not given), the kinetic solubility is > 47.5 µg/mL.
On to `Cc1cc(C)c(OCC(=O)OCC(=O)NC2CCCCCCC2)c(C)c1`, for which the solubility (kinetic) stood at 23.5 µg/mL (≈ 65 µM).
With `CC(=O)c1cc(C(=O)Nc2ccc3ccccc3c2)c(C)o1`, the kinetic solubility was 34.5 µg/mL (≈ 118 µM).
The result for `Fc1ccc(-c2csc(Nc3ccccn3)n2)cc1` reads 0.6 µg/mL (≈ 2.21 µM); that for `Nc1ccc(C(=O)NCCCSc2ccccc2)cc1[N+](=O)[O-]`, 1.6 µg/mL (≈ 4.83 µM); that for `O=C(Nc1cc([N+](=O)[O-])ccc1N1CCCC1)c1ccccc1`, 1.5 µg/mL (≈ 4.82 µM).
As for `Cc1ccc(NC(=O)CCc2ccc(S(=O)(=O)N3CCOCC3)cc2)c(O)c1`, the figure is 44.6 µg/mL (≈ 110 µM); as for `COc1ccc(NC(=O)Nc2c(SC)nsc2SC)cc1`, 1.8 µg/mL (≈ 5.27 µM); as for `CCOC(=O)C1=C(COC(=O)c2ccc([N+](=O)[O-])s2)NC(=O)NC1C` (stereo not given), > 55.4 µg/mL.
As for `CCCOc1ccc(N2C(=O)C3C4C=CC(CC4)C3C2=O)cc1` (stereo not given), the figure is 4.6 µg/mL (≈ 14.8 µM); as for `Cc1ccsc1C(=O)OCC(=O)NCc1ccccc1`, 10.9 µg/mL (≈ 37.7 µM).
On to `Br.O=[N+]([O-])c1ccc(CSC2=NCCN2)cc1`, for which the solubility (kinetic) is 43.2 µg/mL.
Compound `Cc1ccc(N2CC(C(=O)NCc3ccco3)CC2=O)cc1Cl` (stereo not given) yielded a kinetic solubility of 30.8 µg/mL (≈ 92.6 µM).
In turn, `Cc1ccc(CNc2nc(-c3cccnc3)nc3ccccc23)cc1` returned a kinetic solubility of 2.5 µg/mL (≈ 7.66 µM).
